Molecules are shown by their SMILES.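 Five concentrations, 48 hours, 96-well plates. Abbreviation: GI50, concentration required for 50% inhibition of growth. TGI: concentration producing complete growth inhibition.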

By TGI is commonly meant the concentration at which net growth stops. Low values mean greater sensitivity of the cells, high ones lower sensitivity of the cells. A word on the GI50: it is the concentration that inhibits growth by half.

Some test systems named below: T-47D breast; HOP-18 NSCLC; SNB-78 CNS; LXFL 529 NSCLC.
Assay in all cases: DTP human tumour cell line panel, 48 h

With `Fc1c(F)c(C(F)(F)F)c(F)c(F)c1N/N=C\c1c[nH]c2ccccc12`, the TGI in the test with T-47D breast turned out to be 18.7 µM.
The same measure, in the same setting: then `COc1cc2c(/C=C3/C(=O)Nc4ccc(Cl)cc43)c(Cl)n(Cc3ccccc3)c2cc1C`, with 13.9 µM.
On the same count and under the same terms, with `O=C(O)C(=C\c1ccc2c(c1)OCO2)/C(=C/c1ccc2c(c1)OCO2)C(=O)O` the figure was greater than 100 µM.
Take `N#CC(C#N)=CN1CCN(C(=O)c2ccco2)C1=S`: in the test on T-47D breast, the GI50 was 21.2 µM and the TGI is greater than 100 µM.
For `COc1ccc2c(c1)CC[C@@H]1[C@@H]2CC[C@]2(C)C(=O)C3(CCCCC3)C[C@@H]12`, in the test on T-47D breast, the GI50 was greater than 100 µM and the TGI is greater than 100 µM.
Take `NS(=O)(=O)c1cc2c(cc1Cl)NC(C(=O)c1cc(=O)c3ccc(O)cc3o1)=NS2(=O)=O`: the TGI in the test on HOP-18 NSCLC and with SNB-78 CNS was greater than 100 µM throughout.
Take `CC(=O)OCC(=O)[C@@]1(O)CC[C@H]2[C@@H]3CCC4=CC(=O)[C@H](C)C[C@]4(C)[C@H]3[C@@H](O)C[C@@]21C`: the TGI in the test on HOP-18 NSCLC and in the test on SNB-78 CNS was greater than 100 µM throughout.
In turn, `O=C(NO)c1ccc([N+](=O)[O-])cc1` showed a TGI with LXFL 529 NSCLC of 83.8 µM.

The values above are taken from PubChem BioAssay (NCI).
